Reference: patent publication US20140080162A1, “FLUORESCENCE LIFETIME EPIGENETICS ASSAYS” (ALMAC SCIENCES (SCOTLAND) LIMITED, priority 2011, published 2014)
Read-outs that look alike come from different tables or passages of the source. Residues, ends and D or L forms follow the SMILES beside them. *: point of attachment. Propanoyl(3-(9AA-2-yl)) = Nc1c2ccccc2nc2ccc(CCC(=O)*)cc12

Legend:
G9a = target: T1, G9a (Homo sapiens, UniProt Q96KQ7); assay: G9a FLT protease protection assay; type: biochemical; details: for G9a concentration sufficient to confer complete protease protection: G9a (Abcam), 2 nM Endo-LysC
T1 construct: purchased Millipore; Abcam; BPS Bioscience (via AMSBio)
T1 sequence (Q96KQ7 1-1210): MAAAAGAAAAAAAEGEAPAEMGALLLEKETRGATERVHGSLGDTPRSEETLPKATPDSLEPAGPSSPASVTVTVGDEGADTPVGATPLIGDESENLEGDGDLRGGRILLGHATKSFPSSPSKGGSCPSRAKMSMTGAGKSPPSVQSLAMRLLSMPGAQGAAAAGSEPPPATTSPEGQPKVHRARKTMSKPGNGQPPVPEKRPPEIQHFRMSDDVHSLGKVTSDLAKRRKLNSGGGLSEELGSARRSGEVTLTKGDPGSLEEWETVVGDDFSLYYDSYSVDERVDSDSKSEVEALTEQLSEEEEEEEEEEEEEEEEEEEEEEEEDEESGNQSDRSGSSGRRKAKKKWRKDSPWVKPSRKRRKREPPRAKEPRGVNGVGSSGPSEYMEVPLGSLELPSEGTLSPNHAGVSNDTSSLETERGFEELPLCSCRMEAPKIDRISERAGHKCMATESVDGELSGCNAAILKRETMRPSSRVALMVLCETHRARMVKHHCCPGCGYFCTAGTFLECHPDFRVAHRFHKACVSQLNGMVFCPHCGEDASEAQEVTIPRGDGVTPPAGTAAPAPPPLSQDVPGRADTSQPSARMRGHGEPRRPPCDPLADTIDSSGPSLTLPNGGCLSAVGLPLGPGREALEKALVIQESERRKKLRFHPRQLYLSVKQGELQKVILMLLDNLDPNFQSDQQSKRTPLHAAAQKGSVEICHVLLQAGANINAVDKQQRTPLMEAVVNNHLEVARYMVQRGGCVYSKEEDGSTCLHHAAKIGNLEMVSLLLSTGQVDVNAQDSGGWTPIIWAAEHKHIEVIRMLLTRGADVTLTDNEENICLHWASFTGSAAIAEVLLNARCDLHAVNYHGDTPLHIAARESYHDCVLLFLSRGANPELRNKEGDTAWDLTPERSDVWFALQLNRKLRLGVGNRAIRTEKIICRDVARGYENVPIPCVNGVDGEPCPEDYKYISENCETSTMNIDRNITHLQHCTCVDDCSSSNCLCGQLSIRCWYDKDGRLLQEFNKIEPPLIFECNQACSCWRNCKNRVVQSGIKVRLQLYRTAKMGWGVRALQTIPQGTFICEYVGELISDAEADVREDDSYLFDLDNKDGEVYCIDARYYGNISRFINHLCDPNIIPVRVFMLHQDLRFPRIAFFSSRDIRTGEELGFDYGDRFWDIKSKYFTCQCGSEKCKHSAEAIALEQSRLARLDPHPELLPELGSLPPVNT
Experimental: Assays were performed at room temperature for 2 h and then FLTs measured using a NanoTaurus plate reader (Edinburgh Instruments Ltd.). Each well was then treated with 2 nM protease (Endo-LysC) (10 μl) and the plate incubated at room temperature for 60 min. The FLTs were then re-measured. Controls were included containing no G9a or no protease.
Peptides 4 and 9 were incubated with SAM (100 μM) and varying concentrations of G9a (Abcam) in 20 μl of assay buffer in a 384-well black microplate (Greiner). The assays were performed at room temperature for 2 h after which FLTs were measured as previously described. 2 nM Endo-LysC (10 μl per well) was then added and FLTs re-measured following 10 min and 60 min incubation with the protease.
The dependence of the G9a assay on SAM was investigated using both peptide 4 and 9 as substrates. Assays were performed in a 384-well microplate in assay buffer (20 μl) using either 25 nM or 10 nM G9a and 1 μM substrate. SAM concentrations were varied from 200 μM-0.4 μM and assays were incubated for 2 h at room temperature. On completion, Endo-LysC (2 nM) was added to each well and FLTs measured following a 10 min incubation period.
(§2) Reactions were performed in a 384-well microplate at room temperature for 2 h and stopped by the addition of Endo-LysC (2 nM).
Alternatively, assays were performed in a 384-well microplate at room temperature with an assay volume of 20 μl per well. To wells containing recombinant G9a enzyme in assay buffer (5 μl) was added peptide in assay buffer (10 μl). Reactions were started by the addition of SAM (5 μl). The plate was shaken and then sealed with a coverslip. […] The concentration of peptide was kept constant at 1 μM. Assays were started at different times and stopped together after 2 h by the addition of Endo-LysC (10 μl in assay buffer; final concentration 2 nM). Following incubation at room temperature for 10 min, the microplate was centrifuged at 500 rpm for 1 min and FLTs measured.
For inhibitor titrations, compounds (5 μl) were preincubated with G9a (5 μl) for 30 min at room temperature prior to addition of peptide (5 μl) and SAM (5 μl). Controls containing no SAM or no inhibitor were included.

Set7/9 [1] = target: T2, Set7/9 (Homo sapiens, UniProt Q8WTS6); assay: Set7/9 FLT protease protection assay; type: biochemical; details: for overall lifetime change between substrate and product / maximum range of the assay: Set7/9 time-course, 1 μM peptide
T2 construct: purchased BPS BioScience (via AMSBio, UK)
T2 sequence (Q8WTS6 1-366): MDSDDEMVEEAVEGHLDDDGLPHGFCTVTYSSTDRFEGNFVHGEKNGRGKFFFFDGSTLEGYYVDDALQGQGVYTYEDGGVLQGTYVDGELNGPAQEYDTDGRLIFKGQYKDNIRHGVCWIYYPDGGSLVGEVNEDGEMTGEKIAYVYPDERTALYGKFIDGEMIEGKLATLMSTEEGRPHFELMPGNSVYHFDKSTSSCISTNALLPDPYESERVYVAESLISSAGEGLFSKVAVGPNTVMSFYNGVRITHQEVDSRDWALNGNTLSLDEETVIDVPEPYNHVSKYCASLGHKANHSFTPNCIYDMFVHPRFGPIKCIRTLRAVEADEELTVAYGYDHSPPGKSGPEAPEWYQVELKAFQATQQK
Experimental: The assay was performed at room temperature and samples taken after 0 h, 2 h, and 6 h time intervals respectively.
10 μl of Endo-LysC (final concentration 2 nM) was added to each well and the plate incubated at room temperature for 15 mins before the FLTs were measured using a NanoTaurus plate reader. Peptide only controls were included at the same concentration for comparison.
Assays were performed in a 20 μl volume in a 384-well black microplate and contained peptide 12 (1 μM) and Set7/9 enzyme (100 nM, 50 nM, 25 nM, or 12.5 nM) in assay buffer. Reactions were stopped at regular intervals by the addition of 10 μl Endo-LysC (final concentration 2 nM). FLTs were measured following 15 min incubation with Endo-LysC at room temperature. All measurements were performed in duplicate using a NanoTaurus plate reader.
The dependence of the Set7/9 assay on SAM co-factor was investigated using peptide 13 as the substrate. The assay was performed in a 384-well microplate at room temperature for 2 h in assay buffer (20 μl) using 25 nM Set7/9 and 1 μM substrate. SAM concentrations were varied from 100 μM-1.7 nM. On completion, Endo-LysC (2 nM) was added to each well and FLTs measured following a 20 min incubation period.
as §2
Alternatively, assays were performed in a 384-well microplate at room temperature with an assay volume of 20 μl per well. To wells containing recombinant Set7/9 enzyme and peptide 12 or 13 in assay buffer (10 μl) was added SAM (10 μl) in assay buffer. Controls containing peptide only were also included. The plate was shaken and then sealed with a coverslip. The final concentration of Set7/9 in the assay varied between 100 nM and 12.5 nM whilst the concentration of peptide and SAM were kept constant at 1 μM and 100 μM respectively. Assays were started at different times and stopped together after 120 min by the addition of Endo-LysC (10 μl in assay buffer; final concentration 2 nM). Following incubation at room temperature for 15 min, the microplate was centrifuged at 500 rpm for 1 min and FLTs measured. All measurements were performed in duplicate.
For inhibitor titrations, compounds (5 μl) were preincubated with Set7/9 and peptide 13 (5 μl) for 10 min at room temperature prior to addition of SAM (10 μl). Controls containing no SAM or no inhibitor were included.

Set7/9 [2] = target: T2, Set7/9; details: literature (Gauthier et al. 2012), lower concentration of SAM; read-out: reported IC50; cited from earlier work
[3] = target: T3, EZH2/EED/SUZ12/RbAp48/AEBP2 complex (Homo sapiens, UniProt Q15910); details: read-out: KM (app) for SAM; peptide 20 (1 μM), 100 ng/well EZH2 complex, 5 h
Experimental: The dependence of the EZH2 assay on SAM co-factor was investigated using peptide 20 as the substrate. The assay was performed in a 384-well hi-base microplate at room temperature for 5 h in assay buffer (10 μl) using 100 ng/well EZH2 complex and 1 μM substrate. SAM concentrations were varied from 100 μM-0.05 μM. On completion, Endo-LysC (4 nM) was added to each well and FLTs measured following a 15 min incubation period. The data was fitted to a variable slope dose-response model in Graph Pad Prism to determine the KM (app) for SAM.
For SAM titrations, to wells containing varying concentrations of SAM in assay buffer (2.5 μl) was added EZH2 complex in assay buffer (2.5 μl). Reactions were initiated by the addition of peptide 20 in assay buffer (5 μl). The plate was incubated at room temperature for 5 h and then 10 μl of Endo-LysC in assay buffer was added to each well. Following a further 15 min incubation at room temperature, FLTs were measured. All measurements were performed in triplicate.

[4] = target: T3, EZH2/EED/SUZ12/RbAp48/AEBP2 complex; details: read-out: KM for SAM, literature value; literature (Sneeringer et al. 2010), radiometric assay format; cited from earlier work
PAD4 = target: T4, PAD4 (Homo sapiens, UniProt Q9UM07); assay: PAD4 FLT protease protection assay; type: biochemical; details: 15 μM peptide, 30 nM PAD4, diluted to 1 μM; 10 nM trypsin 10 min
T4 construct: purchased Origene (via Insight Biotechnology)
Experimental: With a suitable HPLC method in hand, PAD4 assays were set up for each of the peptide substrates and aliquots taken at regular time intervals with product formation monitored by RP-HPLC. Each assay was performed in a micro-centrifuge tube containing 15 μM peptide and 30 nM PAD4 (Origene) in assay buffer (300 μl). The assays were performed at room temperature and samples taken at 0 min, 30 min, and 60 min time intervals.
In order to test if citrullination of peptides 1 and 3 by PAD4 had conferred protection against trypsin, the assay mixtures for these peptides (described above) were diluted to 1 μM concentration with assay buffer and 20 μl of each added to three wells of a 384-well black microplate. The FLTs were measured using the NanoTaurus plate reader as described previously. 10 μl of trypsin (final concentration 10 nM) was then added to each well and the plate incubated at room temperature for 10 mins before the FLTs were re-measured. Peptide only controls were included at the same concentration for comparison.
The dependence of the PAD4 assay on peptide substrate concentration was investigated. […] From FIG. 73, a KM of 180 nM was determined for substrate 1. […]
(§1) Where citrullination of the peptide substrate was confirmed, the assay mixtures were diluted 15-fold with assay buffer and transferred to a 384-well microplate (20 μl per well) and FLTs measured. […] FLTs were then re-measured. […]

PAD2 = target: T5, PAD2 (Homo sapiens, UniProt Q9Y2J8); assay: PAD2 FLT protease protection assay; type: biochemical; details: 15 μM peptide, 30 nM PAD2, diluted to 1 μM; 10 nM trypsin 10 min
T5 construct: purchased Modiquest Research
Experimental: Accordingly, peptide 1 (15 μM) was incubated with PAD2 (30 nM) in assay buffer (20 mM Tris pH 8, 200 μM CaCl2, 5 mM DTT, 0.01% CHAPS) (300 μl) and aliquots taken at regular time intervals and analysed by RP-HPLC. The assays were performed at room temperature and samples taken at 0 min, 30 min, and 120 min time intervals
In order to test if citrullination of peptide 1 by PAD2 had conferred protection against trypsin, the assay mixture was diluted to 1 μM concentration with assay buffer and 20 μl added to three wells of a 384-well black microplate. 10 μl of trypsin (final concentration 10 nM) was added to each well and the plate incubated at room temperature for 10 mins before the fluorescence lifetimes (FLTs) were measured using the NanoTaurus plate reader as described in the Experimental section. Peptide only controls were included at the same concentration for comparison.
For HPLC monitoring, assays were performed at room temperature in micro-centrifuge tubes with a total assay volume of 300 μl. Reactions were started by addition of peptide 1 to solutions containing recombinant PAD2 enzyme. […]
as §1

PRMT5 = target: T6, PRMT5 (Homo sapiens, UniProt O14744); assay: PRMT5 FLT protease protection assay; type: biochemical
T6 construct: purchased BPS BioScience (via AMSBio, UK)
T6 sequence (O14744 whole entry): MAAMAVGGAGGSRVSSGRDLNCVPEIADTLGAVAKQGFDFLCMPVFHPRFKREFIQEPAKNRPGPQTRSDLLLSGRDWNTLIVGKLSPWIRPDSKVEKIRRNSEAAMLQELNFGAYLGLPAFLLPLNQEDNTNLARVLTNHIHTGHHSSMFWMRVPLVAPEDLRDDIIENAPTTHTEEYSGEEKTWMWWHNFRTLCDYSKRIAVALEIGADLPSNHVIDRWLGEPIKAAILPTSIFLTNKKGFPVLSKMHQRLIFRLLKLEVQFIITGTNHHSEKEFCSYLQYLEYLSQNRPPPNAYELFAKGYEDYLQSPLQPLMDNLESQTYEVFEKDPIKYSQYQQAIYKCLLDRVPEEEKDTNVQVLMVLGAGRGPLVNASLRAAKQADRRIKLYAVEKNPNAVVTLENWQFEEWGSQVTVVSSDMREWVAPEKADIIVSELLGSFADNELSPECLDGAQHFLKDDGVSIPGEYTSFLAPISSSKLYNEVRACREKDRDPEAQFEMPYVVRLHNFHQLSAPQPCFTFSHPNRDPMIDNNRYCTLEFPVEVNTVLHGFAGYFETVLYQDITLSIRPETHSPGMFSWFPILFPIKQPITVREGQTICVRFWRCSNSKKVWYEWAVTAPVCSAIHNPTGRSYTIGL
Experimental: The assay was performed at room temperature and samples taken after 0 h, 3.5 h, and 17.5 h time intervals respectively.
10 μl of Endo-ArgC (final concentration 10 nM) was added to each well and the plate incubated at room temperature for 60 mins before FLTs were measured. Peptide only controls were included at the same concentration for comparison.
Conditions were as follows: sinefungin (2 mM-0.1 μM), PRMT5 (50 nM), SAM (10 μM) and peptide 15 (1 μM) in assay buffer (20 μl). Reactions were performed in triplicate in a 384-well microplate at room temperature for 3 h and stopped by the addition of Endo-ArgC (1 nM).
Endo-ArgC (10 μl in assay buffer) was then added to each well and the plate incubated at room temperature for 15 mins. FLTs were then re-measured. All measurements were performed in triplicate and the final concentration of Endo-ArgC in the wells was 10 nM.
For inhibitor titrations, compounds (5 μl) were preincubated with PRMT5/peptide 15 (5 μl) for 30 min at room temperature prior to the addition of SAM (5 μl). Assays were run for 3 h at room temperature and stopped by the addition of 10 μl Endo-ArgC. FLTs were measured following a 1 h incubation at room temperature. Controls containing no PRMT5 or no inhibitor were also included. All measurements were performed in triplicate.

T3 sequence (Q15910 whole entry): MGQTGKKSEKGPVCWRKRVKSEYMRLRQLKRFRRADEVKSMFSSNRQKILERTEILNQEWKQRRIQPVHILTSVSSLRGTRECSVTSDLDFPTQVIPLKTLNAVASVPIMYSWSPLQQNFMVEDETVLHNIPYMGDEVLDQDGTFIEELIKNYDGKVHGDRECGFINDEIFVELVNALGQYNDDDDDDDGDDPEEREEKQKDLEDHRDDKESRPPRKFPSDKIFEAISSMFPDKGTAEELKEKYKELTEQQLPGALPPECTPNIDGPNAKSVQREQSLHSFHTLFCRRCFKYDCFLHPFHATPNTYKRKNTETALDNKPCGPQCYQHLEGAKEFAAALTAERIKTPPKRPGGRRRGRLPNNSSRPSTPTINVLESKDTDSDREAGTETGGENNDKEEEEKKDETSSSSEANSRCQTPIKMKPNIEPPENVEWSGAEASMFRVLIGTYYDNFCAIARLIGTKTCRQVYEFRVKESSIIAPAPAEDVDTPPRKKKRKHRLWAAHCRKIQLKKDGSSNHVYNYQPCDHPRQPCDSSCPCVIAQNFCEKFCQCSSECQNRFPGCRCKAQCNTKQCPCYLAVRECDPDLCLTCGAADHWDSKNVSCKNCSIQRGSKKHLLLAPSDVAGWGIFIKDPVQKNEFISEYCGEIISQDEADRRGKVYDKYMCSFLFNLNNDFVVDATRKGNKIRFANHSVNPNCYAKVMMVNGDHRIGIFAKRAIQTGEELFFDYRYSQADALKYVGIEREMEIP
T3 sequence (O75530 whole entry partner): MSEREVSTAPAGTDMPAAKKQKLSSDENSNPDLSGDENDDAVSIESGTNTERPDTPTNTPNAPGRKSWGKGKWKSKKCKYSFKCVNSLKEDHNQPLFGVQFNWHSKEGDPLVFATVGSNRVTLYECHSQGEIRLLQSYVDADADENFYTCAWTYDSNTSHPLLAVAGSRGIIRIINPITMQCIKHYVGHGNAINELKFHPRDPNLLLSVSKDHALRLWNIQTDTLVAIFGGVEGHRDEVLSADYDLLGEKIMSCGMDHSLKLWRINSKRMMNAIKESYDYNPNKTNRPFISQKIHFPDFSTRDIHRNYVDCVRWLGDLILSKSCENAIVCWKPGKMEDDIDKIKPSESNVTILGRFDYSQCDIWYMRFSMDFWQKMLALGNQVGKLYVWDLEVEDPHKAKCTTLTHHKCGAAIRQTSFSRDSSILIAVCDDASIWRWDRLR
T3 sequence (Q15022 whole entry partner): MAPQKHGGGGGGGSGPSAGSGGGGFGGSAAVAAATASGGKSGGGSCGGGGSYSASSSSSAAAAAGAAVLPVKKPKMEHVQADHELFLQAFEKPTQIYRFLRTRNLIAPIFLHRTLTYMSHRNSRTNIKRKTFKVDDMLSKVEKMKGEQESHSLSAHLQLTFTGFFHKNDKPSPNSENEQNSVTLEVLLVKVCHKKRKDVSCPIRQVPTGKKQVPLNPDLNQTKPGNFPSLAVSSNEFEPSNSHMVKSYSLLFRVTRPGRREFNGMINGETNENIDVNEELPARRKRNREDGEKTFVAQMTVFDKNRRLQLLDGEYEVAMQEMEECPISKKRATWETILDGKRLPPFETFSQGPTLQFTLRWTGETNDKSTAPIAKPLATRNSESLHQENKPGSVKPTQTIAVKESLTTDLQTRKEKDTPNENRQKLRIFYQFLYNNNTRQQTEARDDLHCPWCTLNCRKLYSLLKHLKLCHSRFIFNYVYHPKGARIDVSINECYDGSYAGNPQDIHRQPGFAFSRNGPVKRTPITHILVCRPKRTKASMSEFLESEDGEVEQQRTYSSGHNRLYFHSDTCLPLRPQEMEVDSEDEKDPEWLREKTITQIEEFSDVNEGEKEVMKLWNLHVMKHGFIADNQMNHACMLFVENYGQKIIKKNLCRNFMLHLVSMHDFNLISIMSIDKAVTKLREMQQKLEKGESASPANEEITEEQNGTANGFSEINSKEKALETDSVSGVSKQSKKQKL
T3 sequence (Q09028 whole entry partner): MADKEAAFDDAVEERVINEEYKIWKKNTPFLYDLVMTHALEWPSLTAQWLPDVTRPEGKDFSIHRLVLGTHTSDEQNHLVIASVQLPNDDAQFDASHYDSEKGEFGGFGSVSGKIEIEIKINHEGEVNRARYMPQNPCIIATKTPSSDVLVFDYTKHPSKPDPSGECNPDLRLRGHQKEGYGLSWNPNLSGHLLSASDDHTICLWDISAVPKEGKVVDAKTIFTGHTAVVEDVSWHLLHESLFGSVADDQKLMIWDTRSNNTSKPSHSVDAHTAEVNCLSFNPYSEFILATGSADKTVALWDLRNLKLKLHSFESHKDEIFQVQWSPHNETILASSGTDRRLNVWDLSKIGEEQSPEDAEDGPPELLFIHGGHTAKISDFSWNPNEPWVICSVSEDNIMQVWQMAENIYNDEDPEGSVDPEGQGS
T3 sequence (Q6ZN18 whole entry partner): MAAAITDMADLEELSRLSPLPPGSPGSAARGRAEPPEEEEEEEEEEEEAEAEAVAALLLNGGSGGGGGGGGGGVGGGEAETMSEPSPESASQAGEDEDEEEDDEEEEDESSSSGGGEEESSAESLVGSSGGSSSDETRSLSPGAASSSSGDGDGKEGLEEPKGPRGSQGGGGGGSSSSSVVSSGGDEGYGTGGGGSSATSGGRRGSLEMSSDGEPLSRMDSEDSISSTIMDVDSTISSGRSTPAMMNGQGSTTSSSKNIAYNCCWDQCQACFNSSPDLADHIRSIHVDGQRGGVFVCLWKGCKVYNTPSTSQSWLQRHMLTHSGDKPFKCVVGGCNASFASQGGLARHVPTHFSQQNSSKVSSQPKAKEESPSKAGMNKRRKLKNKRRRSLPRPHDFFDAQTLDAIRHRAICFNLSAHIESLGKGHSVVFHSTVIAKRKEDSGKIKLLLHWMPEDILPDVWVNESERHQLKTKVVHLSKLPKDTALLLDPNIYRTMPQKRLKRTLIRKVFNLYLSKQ
T4 sequence (Q9UM07 whole entry): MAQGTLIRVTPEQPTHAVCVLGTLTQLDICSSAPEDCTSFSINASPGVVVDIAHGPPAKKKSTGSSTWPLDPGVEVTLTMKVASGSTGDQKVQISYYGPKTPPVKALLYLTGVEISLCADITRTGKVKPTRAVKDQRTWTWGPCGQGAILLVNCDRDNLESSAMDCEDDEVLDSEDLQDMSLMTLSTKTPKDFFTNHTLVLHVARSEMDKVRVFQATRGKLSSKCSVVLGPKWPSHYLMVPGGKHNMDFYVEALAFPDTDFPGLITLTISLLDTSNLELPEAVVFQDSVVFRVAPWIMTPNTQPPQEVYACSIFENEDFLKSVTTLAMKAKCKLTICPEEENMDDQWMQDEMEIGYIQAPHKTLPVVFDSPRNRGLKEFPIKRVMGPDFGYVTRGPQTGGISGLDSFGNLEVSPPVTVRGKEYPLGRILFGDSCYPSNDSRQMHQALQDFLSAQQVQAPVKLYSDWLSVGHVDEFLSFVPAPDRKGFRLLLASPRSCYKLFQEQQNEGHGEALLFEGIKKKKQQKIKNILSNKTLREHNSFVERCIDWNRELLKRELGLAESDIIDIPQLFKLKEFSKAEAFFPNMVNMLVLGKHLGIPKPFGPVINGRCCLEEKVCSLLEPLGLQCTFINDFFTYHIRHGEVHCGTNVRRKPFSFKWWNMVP
T5 sequence (Q9Y2J8 whole entry): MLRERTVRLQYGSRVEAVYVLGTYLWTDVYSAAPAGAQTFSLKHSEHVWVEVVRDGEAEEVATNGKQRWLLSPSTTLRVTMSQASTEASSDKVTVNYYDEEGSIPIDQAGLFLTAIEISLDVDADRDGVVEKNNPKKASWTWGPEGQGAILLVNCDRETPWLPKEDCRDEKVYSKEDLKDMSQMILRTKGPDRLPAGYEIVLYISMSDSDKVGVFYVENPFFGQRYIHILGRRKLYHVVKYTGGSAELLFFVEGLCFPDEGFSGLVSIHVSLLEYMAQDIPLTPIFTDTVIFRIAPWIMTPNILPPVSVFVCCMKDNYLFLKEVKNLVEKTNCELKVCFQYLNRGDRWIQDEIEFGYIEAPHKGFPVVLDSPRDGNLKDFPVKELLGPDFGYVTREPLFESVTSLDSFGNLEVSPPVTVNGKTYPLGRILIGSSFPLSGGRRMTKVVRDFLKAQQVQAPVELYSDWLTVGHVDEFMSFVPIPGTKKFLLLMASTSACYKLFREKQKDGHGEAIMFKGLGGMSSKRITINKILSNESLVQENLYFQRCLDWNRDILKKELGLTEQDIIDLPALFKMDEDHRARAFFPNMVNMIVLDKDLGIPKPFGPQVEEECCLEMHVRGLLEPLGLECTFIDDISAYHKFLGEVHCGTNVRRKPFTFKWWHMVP

**Q.** For 9AA-TARK^9STGW-CONH2 [peptide 4], which “G9a concentration sufficient to confer complete protease protection” value (G9a; SAM 100 μM, 2 h) is on record?
**A.** Its value is 50 nM.

**Q.** Which IC50 (Set7/9 [1]; peptide 13 (1 μM), Set7/9 50 nM, SAM 500 nM, 2 h) does the source give for `Nc1ncnc2c1ncn2[C@@H]1O[C@H](CSCC[C@H](N)C(=O)O)[C@@H](O)[C@H]1O` [SAH, S-adenosylhomocysteine, reference compound] here?
**A.** Its IC50 is 37 µM.

**Q.** What about the IC50 (Set7/9 [2]) of the same compound?
**A.** Its IC50 is 16 µM.

**Q.** Which results are given for `C[S+](CC[C@H](N)C(=O)[O-])C[C@H]1O[C@@H](n2cnc3c(N)ncnc32)[C@H](O)[C@@H]1O` (some centres unmarked) [SAM, S-adenosylmethionine, reference compound]?
**A.** Km (G9a; peptides 4 and 9 as substrates (1 μM), 25 nM or 10 nM G9a, 2 h room temperature, read-out: Km (app) for SAM): 3 to 11 µM; Km (Set7/9 [1]; peptide 13 as substrate (1 μM), 25 nM Set7/9, 2 h, read-out: Km (app) for SAM): 0.5 µM; Km [3]: 0.71 µM; Km [4]: 0.21 to 0.3 µM

**Q.** Which “increase in FLT after trypsin for peptide exposed to PAD4” value (PAD4) does the source give for `C[C@@H](O)[C@H](NC(=O)[C@H](CO)NC(=O)[C@H](CCC(N)=O)NC(=O)CCc1ccc2nc3ccccc3c(N)c2c1)C(=O)N[C@@H](CCCNC(=N)N)C(=O)NCC(=O)N[C@@H](CO)C(=O)NCC(=O)N[C@@H](Cc1c[nH]cn1)C(=O)N[C@@H](Cc1c[nH]c2ccccc12)C(=O)N[C@@H](CCCCN)C(=O)N[C@@H](CCCCN)C(N)=O` [peptide 1] ({Propanoyl(3-(9AA-2-yl))}-QSTRGSGHWKK-NH2) here?
**A.** The value was “no increase in FLT”.

**Q.** What about the “increase in FLT after trypsin for peptide exposed to PAD2” value (PAD2) of the same compound?
**A.** Its value is “no increase in FLT”.

**Q.** For `C[C@@H](O)[C@H](NC(=O)[C@H](CO)NC(=O)[C@H](CCC(N)=O)NC(=O)[C@H](Cc1c[nH]cn1)NC(=O)[C@@H](N)CCCCNC(=O)CCc1ccc2nc3ccccc3c(N)c2c1)C(=O)N[C@@H](CCCNC(=N)N)C(=O)NCC(=O)N[C@@H](CO)C(=O)NCC(=O)N[C@@H](Cc1c[nH]cn1)C(=O)N[C@@H](Cc1c[nH]c2ccccc12)C(=O)N[C@@H](CCCCN)C(=O)N[C@@H](CCCCN)C(N)=O` [peptide 3] (H-K(Propanoyl(3-(9AA-2-yl)))HQSTRGSGHWKK-NH2; N-terminus assumed), which “increase in FLT after trypsin for peptide exposed to PAD4” value (PAD4) is on record?
**A.** The value was “no increase in FLT”.

**Q.** Which IC50 (PRMT5; peptide 15 (1 μM), PRMT5 50 nM, SAM 10 μM, 3 h) does the source give for `Nc1ncnc2c1ncn2[C@@H]1O[C@H](C[C@@H](N)CC[C@H](N)C(=O)O)[C@@H](O)[C@H]1O` [sinefungin, reference compound] here?
**A.** The IC50 was 13 µM.

**Q.** For “Ac-WSGRGKGGK(9AA)GLGKGGAKRHRK-CONH2 [peptide 15]”, which “increase in FLT after Endo-ArgC for peptide exposed to PRMT5” value (PRMT5; 150 nM PRMT5, 100 μM SAM, reaction not complete, 10 nM Endo-ArgC 60 min) is on record?
**A.** Its value is 4.7 ns.

**Q.** What does the source list for “K(9AA)ARTK(Me)QTARK^9STGGW-CONH2 [peptide 9]”?
**A.** G9a concentration sufficient to confer complete protease protection (G9a; SAM 100 μM, 2 h): 50 nM; protease protection after G9a treatment (G9a; G9a (Millipore) 500 nM, SAM 100 μM, 2 h, 2 nM Endo-LysC 60 min): complete protease protection

**Q.** Which “increase in FLT after Endo-LysC for peptide exposed to Set7/9” value (Set7/9 [1]; 15 μM peptide, 172 nM Set7/9, 100 μM SAM, diluted to 1 μM, 2 nM Endo-LysC 15 min) does the source give for “WARTKQTARK(9AA)STGGKAPRKQLAK-CONH2 [peptide 12]” here?
**A.** The value was “no significant increase in FLT”.

**Q.** And the “overall lifetime change between substrate and product / maximum range of the assay” value (Set7/9 [1]; 2 nM Endo-LysC 15 min)?
**A.** The value was “approximately 2.4 ns”.

**Q.** For “WRTKQTARK(9AA)STGGKAPRKQLAK-CONH2 [peptide 13]”, which “overall lifetime change between substrate and product / maximum range of the assay” value (Set7/9 [1]; 2 nM Endo-LysC 15 min) is on record?
**A.** The value was 4 ns.
